The target in this test is T1, KCC3 (Homo sapiens, UniProt Q9UHW9).
T1 construct: expressed in transfected cells; host or cells: HEK-293
T1 sequence (Q9UHW9 1-1150): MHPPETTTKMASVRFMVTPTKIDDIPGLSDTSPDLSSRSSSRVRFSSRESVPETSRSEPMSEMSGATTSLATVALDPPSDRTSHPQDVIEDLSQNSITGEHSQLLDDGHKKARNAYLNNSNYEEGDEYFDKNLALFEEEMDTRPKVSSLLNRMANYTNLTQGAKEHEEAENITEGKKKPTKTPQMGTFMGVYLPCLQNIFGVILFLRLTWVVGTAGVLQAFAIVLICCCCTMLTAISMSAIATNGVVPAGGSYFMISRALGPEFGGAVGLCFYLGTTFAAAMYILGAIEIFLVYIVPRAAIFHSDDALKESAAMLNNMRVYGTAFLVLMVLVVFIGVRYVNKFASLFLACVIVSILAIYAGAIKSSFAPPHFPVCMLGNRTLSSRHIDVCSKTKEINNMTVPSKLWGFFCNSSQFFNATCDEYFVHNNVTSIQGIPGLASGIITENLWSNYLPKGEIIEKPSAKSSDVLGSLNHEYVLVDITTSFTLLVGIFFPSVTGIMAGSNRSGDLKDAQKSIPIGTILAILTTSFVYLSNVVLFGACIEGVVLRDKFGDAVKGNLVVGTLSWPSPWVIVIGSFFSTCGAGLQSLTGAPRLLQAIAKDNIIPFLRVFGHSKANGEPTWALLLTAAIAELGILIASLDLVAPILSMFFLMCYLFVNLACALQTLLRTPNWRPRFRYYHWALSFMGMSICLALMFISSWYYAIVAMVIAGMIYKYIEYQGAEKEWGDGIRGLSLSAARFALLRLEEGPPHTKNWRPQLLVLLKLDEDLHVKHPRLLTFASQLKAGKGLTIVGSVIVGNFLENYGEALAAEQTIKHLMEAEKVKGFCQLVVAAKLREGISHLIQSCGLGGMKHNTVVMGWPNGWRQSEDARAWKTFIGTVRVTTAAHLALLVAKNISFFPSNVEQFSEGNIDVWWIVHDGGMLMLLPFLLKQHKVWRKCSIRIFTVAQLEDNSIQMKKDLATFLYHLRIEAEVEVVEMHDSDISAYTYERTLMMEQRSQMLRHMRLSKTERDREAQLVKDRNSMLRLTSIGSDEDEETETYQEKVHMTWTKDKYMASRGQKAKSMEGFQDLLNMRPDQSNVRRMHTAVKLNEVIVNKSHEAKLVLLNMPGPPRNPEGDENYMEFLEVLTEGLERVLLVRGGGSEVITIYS
The test can be described thus: Tl+ flux assay in HEK-293 cells expressing KCC3. The test is classed as cell-based. To be noted: read-out: concentration at which effects on KCC3 were seen (EC50 chart, FIG. 1G). As for the experimental part:
FLIPR TI Flux assay. HEK-293 cells were washed with HBSS, and then incubated with loading buffer containing TI sensitive fluorescent dye (https://www.moleculardevices.com), 20 μM bumetanide 20 μM ouabain and 2.5 mM probenecid for 1 h at room temperature (RT) under control conditions or with drugs in the dark using a FlexStation 3 microplate reader (Molecular Devices) and imaged […] for 30 min. Stimulus buffer was added containing 5 mM K^+/0.5 mM Tl^+ and cells were imaged every 1.5 over a 190 second time course The initial rate Tl^+ uptake (Relative Fluorescence Units (RFU) per second) was determined following addition of the stimulus buffer as outlined previously (Conway et al., 2017, supra) (Lee et al., 2022, supra).
Several studies have shown that the activity and plasma membrane accumulation of KCC2 is potentiated via phosphorylation of S940, a process mediated by the activity of protein kinase C and protein phosphatase 1 (Lee et al., 2011, supra; Lee et al., J Biol Chem 282, 29777-29784 (2007); Moore et al., Proc. Natl. Acad. Sci. U.S.A 115, 10166-10171 (2018); Moore et al., Trends Neurosci. 40, 555-571 (2017); Silayeva et al., Proc. Natl. Acad. Sci. U.S.A 112, 3523-3528 (2015)). […] Compared to KCC2, effects on KCC3, KCC4, and NKCC1 were only seen at concentrations more than 35-fold that of KCC2 (≥100 μM) (FIG. 1G).

Molecules are shown by their SMILES. A value given as a limit tells only on which side of the number the result lay.

With `C[C@@H]1CN(c2nc3c(c(Nc4ccc(C5CCCCC5)cc4)n2)COC3)CCO1` [Compound A, (R)—N-(4-cyclohexylphenyl)-2-(2-methylmorpholino)-5,7-dihydrofuro[3,4-d]pyrimidin-4-amine], the EC50 was at least 100 µM.
